ChEMBL document CHEMBL3797142, “The self-assembly of a camptothecin-lysine nanotube” (Bioorg Med Chem Lett, 2016)
≈ marks a conversion by molar mass, not a printed value. One block for each compound: values may come before it.

Columns and labels:
[1] = Drug level in pH 7.4 PBS treated with camptothecin-lysine nanotube at 37 degC after 1 week by RP-HPLC analysis; format: physicochemical; conditions: buffer, pH 7.4, 168 h
[2] = Drug level in pH 7.4 PBS treated with camptothecin-lysine at 1 mM at 37 degC after 3 days by RP-HPLC analysis; format: physicochemical; conditions: buffer, pH 7.4, 72 h, 1000 µM
[3] = Drug level in pH 9 borate buffer treated with camptothecin-lysine at 1 mM at 37 degC by RP-HPLC analysis; format: physicochemical; conditions: pH 9, 1000 µM
NCI-H460 = experiment: Cytotoxicity against human NCI-H460 cells assessed as cell viability after 96 hrs by MTT assay; format: functional, cell-based; conditions: NCI-H460, 96 h
[4] = Drug metabolism in pH 7.4 PBS assessed as remaining parent compound level at 1 mM at 37 degC after 3 days by RP-HPLC analysis; format: physicochemical; conditions: read-out: Stability
[5] = Induction of self assembly in pH 7.4 PBS assessed as beta-sheet interaction within assembly at 20 mM lyophilized for 3 days followed by redissolved in D2O by fourier transform infrared spectroscopic method; format: physicochemical; conditions: buffer, pH 7.4, 72 h, 20000 µM
A549 [6] = experiment: Drug uptake in human A549 cells at 10 mM after 8 hrs by flow cytometric method; format: ADME, cell-based; conditions: a549, 8 h, 10000 µM
[7] = Induction of J-type self aggregation in pH 7.4 PBS at 250 uM after 3 days by UV-Vis spectrometry; format: physicochemical; conditions: buffer, pH 7.4, 72 h
A549 [8] = experiment: Cytotoxicity against human A549 cells assessed as cell viability after 96 hrs by MTT assay; format: functional, cell-based; conditions: A549, 96 h
NCI-H23 = experiment: Cytotoxicity against human NCI-H23 cells assessed as cell viability after 96 hrs by MTT assay; format: functional, cell-based; conditions: NCI-H23, 96 h
[9] = Solubility of the compound in pH 7.4 PBS; format: physicochemical
[10] = Induction of self assembly in pH 7.4 PBS assessed as thickness of nanotube walls at 1 mM after 72 hrs by transmission electron microscopy; format: physicochemical; conditions: buffer, pH 7.4, 72 h, 1000 µM
[11] = Critical aggregation concentration of the compound in pH 7.4 PBS by Nile Red dye based luminescence spectrometric method; format: ADME; conditions: buffer
[12] = Induction of self assembly in water at pH 7 assessed as diameter of nanotube at 1 mM after 72 hrs by transmission electron microscopy; format: physicochemical; conditions: buffer, pH 7, 72 h, 1000 µM
[13] = Induction of self assembly in pH 7.4 PBS assessed as diameter of nanotube at 1 mM after 72 hrs by transmission electron microscopy; format: physicochemical; conditions: buffer, pH 7.4, 72 h, 1000 µM
[14] = Solubility of the compound in water; format: physicochemical
[15] = Induction of non specific self aggregation in pH 7.4 PBS at 250 uM; format: physicochemical; conditions: buffer, pH 7.4, 250 µM
[16] = Critical aggregation concentration of the compound in water by Nile Red dye based luminescence spectrometric method; format: ADME; conditions: buffer
[17] = Induction of self assembly in pH 7.4 PBS assessed as diameter of nanotube at 10 mM after 24 hrs by transmission electron microscopy; format: physicochemical; conditions: buffer, pH 7.4, 24 h, 10000 µM
[18] = Induction of self assembly in pH 7.4 PBS assessed as zeta potential of nanotube at 1 mM after 1 day; format: physicochemical; conditions: buffer, pH 7.4, 24 h, 1000 µM
A549 [19] = experiment: Drug uptake in human A549 cells at 10 mM after 12 to 24 hrs by flow cytometric method; format: ADME, cell-based; conditions: a549, 10000 µM
[20] = Drug level in pH 6 PBS treated with camptothecin-lysine at 0.1 mM at 37 degC after 15 hrs by RP-HPLC analysis; format: physicochemical; conditions: buffer, pH 6, 15 h, 100 µM
[21] = Drug level in pH 7.4 PBS treated with camptothecin-lysine at 0.1 mM at 37 degC after 15 hrs by RP-HPLC analysis; format: physicochemical; conditions: buffer, pH 7.4, 15 h, 100 µM

SMILES: CC[C@@](O)(C(=O)O)c1cc2n(c(=O)c1CO)Cc1cc3ccccc3nc1-2
Drug metabolism [1]: metabolite_detected | Drug metabolism [2]: metabolite_detected | Drug metabolism [3]: metabolite_detected

remaining at 72 h, 1000 µM [4]: 39% | Activity [5]: Not Active | Drug uptake (A549 [6]): Active | Activity [7]: Active | solubility [9]: 5140 µg/mL (≈ 8.93 mM) | Activity [10]: 7.5 nm | CAC [11]: 160 µM | Activity [12]: 40 nm | Activity [13]: 70 nm | solubility [14]: 12100 µg/mL (≈ 21 mM) | Activity [15]: Active | CAC [16]: 200 µM | Activity [17]: < 500 nm | Activity [18]: 19.7 mV
SMILES: CC[C@@]1(OC(=O)CCC(=O)NCCCC[C@H](N)C(N)=O)C(=O)OCc2c1cc1n(c2=O)Cc2cc3ccccc3nc2-1
IC50 (NCI-H460): 430 nM | IC50 (A549 [8]): 1120 nM | IC50 (NCI-H23): 120 nM

SMILES: CC[C@@]1(O)C(=O)OCc2c1cc1n(c2=O)Cc2cc3ccccc3nc2-1 [CAMPTOTHECIN]
Drug uptake (A549 [19]): Active | Drug metabolism [20]: metabolite_detected | IC50 (NCI-H460): 190 nM | Drug metabolism [1]: metabolite_detected | Drug metabolism [2]: metabolite_detected | Drug uptake (A549 [6]): Active | IC50 (A549 [8]): 350 nM | Drug metabolism [21]: metabolite_detected | IC50 (NCI-H23): 70 nM | solubility [14]: 3 µg/mL (≈ 0.00861 mM)
